Assay results: patent US20260144786A1, “METHOD FOR TREATING MENSTRUAL CYCLE DISORDERS” (Guangzhou HuTong Youwu Biotechnology Co., Ltd, priority 2023, published 2026)

How the values were obtained:
[1] = Use of PQQ for preventing menstrual cycle disorders (oral tablets, six months, vitamin C control); format: in vivo, human; conditions: preliminary experimental data
Procedure: (§1) The criteria for menstrual cycle disorders are as follows: 1. Early menstruation: Early menstruation refers to a shortened menstrual cycle that is shorter than 21 days and occurs for more than two consecutive cycles. It is a biphasic basal body temperature of ovulatory functional uterine bleeding, a short follicular phase of only 7 or 8 days; or a luteal phase of less than 10 days, or a temperature rise of less than 0.5° C. 2. Delayed menstruation: Menstruation is missed for more than 7 days, or even 40-50 days, and symptoms appear for more than 2 menstrual cycles. […] 3. Prolonged menstruation: The symptoms of this type of menstrual disorder are mainly a normal menstrual cycle but a prolonged menstrual period, lasting more than 7 days, or even up to 2 weeks before ending. Those with inflammation usually experience lower abdominal pain, which is aggravated during menstruation. Usually, the amount of leucorrhea is heavy, yellow or yellowish-white, thick, and odorous. Those with incomplete corpus luteum atrophy are also accompanied by heavy menstruation; those with prolonged endometrial repair still experience a small amount of persistent vaginal bleeding after the normal menstrual period. 4. Irregular menstruation: Menstruation is early or late, and the cycle is shorter than 21 days or longer than 35 days. No endometriosis. […]

[2] = Use of PQQ for ameliorating or treating menstrual cycle disorders (oral tablets, six months, vitamin C control); format: in vivo, human; conditions: preliminary experimental data
Procedure: as §1

O=C(O)c1cc(C(=O)O)c2c(n1)C(=O)C(=O)c1cc(C(=O)O)[nH]c1-2 [PQQ, 4,5-dioxo-1H-pyrrolo[2,3-f]quinoline-2,7,9-tricarboxylic acid]
effect on preventing menstrual cycle disorders compared with a placebo [1]: significant effect | effect on alleviating or treating menstrual cycle disorders compared with a placebo [2]: significant effect
